The record followed here is patent US8536231B2, “Methods for treating diabetic foot ulcers” (priority 2011, dated 2013).

This data set deals with diabetic foot ulcers. The settings on record: human, in vivo. How it is done: The study was designed as a randomized, parallel-group, double-blind, placebo-controlled, multi-center trial. After 14-days of best-of-care to evaluate ulcer healing and ensure the wounds were chronic, four-weeks of active treatment were then followed by eight weeks of observation and assessment. The study compared the effects of two concentrations of NorLeu^3-A(1-7) and placebo, measuring both clinical efficacy and safety. Sustained tissue integrity was evaluated for all subjects during a follow-up period lasting 12 weeks after complete wound closure.
Subjects were randomized in a 1:1:1 ratio to one of the three treatment groups: • Group 1: Placebo Vehicle Control without NorLeu^3-A(1-7) (also referred to as “DSC127”) (2% Hydroxyethyl Cellulose (HEC) with 0.1% methyl paraben, 0.02% propyl paraben) • Group 2: 0.03% NorLeu^3-A(1-7) in Vehicle • Group 3: 0.01% NorLeu^3-A(1-7) in Vehicle
The four-week treatment period required daily application of the treatment to the wound site. The first application each week was at the clinic and for the remainder of the week the patient self-administered the treatment.
If wound healing occurred during the treatment or assessment periods a final assessment visit was conducted and the integrity was assessed 4 and 12 weeks later (usually weeks 16 and 24 of the study). […]

Non-standard residues stand in square brackets, D forms with d. Residues, ends and D or L forms follow the SMILES beside them. Nle = CCCC[C@H](N)C(=O)O

For the compound `CCCC[C@H](NC(=O)[C@H](CCCNC(=N)N)NC(=O)[C@@H](N)CC(=O)O)C(=O)N[C@@H](Cc1ccc(O)cc1)C(=O)N[C@H](C(=O)N[C@@H](Cc1c[nH]cn1)C(=O)N1CCC[C@H]1C(=O)O)[C@@H](C)CC` [NorLeu^3-A(1-7), Asp-Arg-Nle-Tyr-Ile-His-Pro] (H-DR[Nle]YIHP-OH; N-terminus and C-terminus assumed), the “adverse events associated with treatment” value was “no significant adverse events” and the tolerability result is recorded as “well-tolerated”.
